Experimental findings from ChEMBL document CHEMBL1141890, “DNA topoisomerase I inhibitors from Rinorea anguifera” (Bioorg Med Chem Lett, 2005) are described below.

Assay [1] deals with T1, DNA topoisomerase 1 (Homo sapiens) (UniProt P11387).
T1 sequence (whole entry): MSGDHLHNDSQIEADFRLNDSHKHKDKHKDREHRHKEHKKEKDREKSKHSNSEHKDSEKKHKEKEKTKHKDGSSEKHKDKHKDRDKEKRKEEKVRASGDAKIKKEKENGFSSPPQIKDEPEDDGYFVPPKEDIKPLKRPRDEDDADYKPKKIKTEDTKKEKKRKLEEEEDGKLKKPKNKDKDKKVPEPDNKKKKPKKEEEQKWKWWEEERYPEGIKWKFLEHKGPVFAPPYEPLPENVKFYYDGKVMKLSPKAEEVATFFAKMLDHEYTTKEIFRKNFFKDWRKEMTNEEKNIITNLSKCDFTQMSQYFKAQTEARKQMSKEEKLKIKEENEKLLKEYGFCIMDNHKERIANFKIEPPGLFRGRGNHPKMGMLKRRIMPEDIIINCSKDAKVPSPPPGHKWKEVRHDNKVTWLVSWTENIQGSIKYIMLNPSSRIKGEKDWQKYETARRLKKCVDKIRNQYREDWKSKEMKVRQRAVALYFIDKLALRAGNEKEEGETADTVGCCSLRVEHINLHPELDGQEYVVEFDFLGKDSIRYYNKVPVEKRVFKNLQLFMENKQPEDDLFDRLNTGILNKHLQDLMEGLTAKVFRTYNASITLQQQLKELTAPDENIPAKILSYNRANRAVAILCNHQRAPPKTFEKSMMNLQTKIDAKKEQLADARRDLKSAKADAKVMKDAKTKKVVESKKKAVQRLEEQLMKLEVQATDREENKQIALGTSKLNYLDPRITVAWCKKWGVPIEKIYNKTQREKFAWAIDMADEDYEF
The following applies: 2 uM.
Description: Effect on DNA breakge as nicked FormII at 2 uM without topoisomerase I

In assay [2] the target is T1, DNA topoisomerase 1 (Homo sapiens). The following applies: 0.25 uM.
Description: Effect on DNA breakge as nicked FormII at 0.25 uM with topoisomerase I
The target is the same in assay [3]. To be noted: 2 uM. This is another data set of the same source.
Description: Effect on stabilization of human topoisomerase I-DNA covalent complex at 2 uM
For assay [4] the target is unchanged. The assay can be described thus: Effect on DNA breakge as nicked FormII at 100 uM without topoisomerase I. The class given is functional.
The target is the same in assay [5]. As to the kind of experiment: Effect on DNA breakge as nicked FormII at 1 uM with topoisomerase I. The class given is functional.
Assay [6] has the same target. As to the kind of experiment: Effect on stabilization of human topoisomerase I-DNA covalent complex at 100 uM.

Turning to `CC[C@@]1(O)C(=O)OCc2c1cc1n(c2=O)Cc2cc3ccccc3nc2-1`, the Effect was 96% in assay [1], 84% in assay [2] and 2% in assay [3].

On to `CC1O[C@@H](OC[C@H]2O[C@@H](Oc3c(-c4ccc(O)cc4)oc4cc(O)cc(O)c4c3=O)C(O[C@@H]3O[C@H](C)[C@H](O)C(O)C3O)C(O)[C@H]2O)C(O)[C@@H](O)[C@H]1O` (some centres undefined), for which the results for the Effect in assay [4], in assay [5] and in assay [6] were 75%, 31% and 10%, respectively.

As for `COc1cc([C@H]2OC[C@H]3[C@@H]2CO[C@@H]3c2cc(OC)c(O)c(OC)c2)cc(OC)c1O`, the Effect in assay [4] stood at 15%; in assay [5], 8%; in assay [6] it was 2%.
